# Measured values: patent US20250281480A1, “PHARMACEUTICAL DRY POWDER INHALATION FORMULATION” (Bayer Aktiengesellschaft, priority 2021, published 2025)
# Test system: cGMP
# Assay: Phase I, healthy male subjects, inhaled once daily for 14 days: cGMP
# Format: in vivo, human
# Conditions: for cGMP changes from baseline: 1000 μg inhaled once daily for 14 days, n = 17; for cGMP concntration over time (mean +/− standard deviation): 1000 μg inhaled once daily, 14 days
# Experimental: Healthy white male subjects, aged 18 to 45 years and with a body mass index (BMI) above/equal 18.5 and below/equal 29.9 kg/m2 were treated in a clinical pharmacological phase I study for 14 days with inhaled once daily doses of 1000 μg (nominal dose) or Placebo of dry powder of example 4. […] Drug activity/target engagement in healthy men was controlled in the healthy subjects by analysing blood samples for cGMP.
smiles,measurement,setting,value
"O=C(O)c1ccc(CCN(CCc2ccccc2OCc2ccc(-c3ccc(C(F)(F)F)cc3)cc2Cl)[C@H]2CCCc3nc(C(=O)O)ccc32)cc1 [Example 4, (5S)—{[2-(4-Carboxyphenyl)ethyl][2-(2-{[3-chloro-4′-(trifluoromethyl)biphenyl-4-yl]methoxy}phenyl)-ethyl]amino}-5,6,7,8-tetrahydroquinoline-2-carboxylic Acid as Monohydrate I]",cGMP changes from baseline,0 D 02 H 00 M,4840 pmol/L
same,cGMP changes from baseline,0 D 04 H 00 M,7290 pmol/L
same,cGMP changes from baseline,0 D 06 H 00 M,9950 pmol/L
same,cGMP changes from baseline,0 D 08 H 00 M,10600 pmol/L
same,cGMP changes from baseline,0 D 12 H 00 M,7530 pmol/L
same,cGMP changes from baseline,0 D 15 H 00 M,6740 pmol/L
same,cGMP changes from baseline,1 D 00 H 00 M,2980 pmol/L
same,cGMP changes from baseline,2 D 00 H 00 M,4550 pmol/L
same,cGMP changes from baseline,2 D 03 H 00 M,13000 pmol/L
same,cGMP changes from baseline,2 D 08 H 00 M,16400 pmol/L
same,cGMP changes from baseline,2 D 12 H 00 M,12600 pmol/L
same,cGMP changes from baseline,3 D 00 H 00 M (trough prior inhalation),5160 pmol/L
same,cGMP changes from baseline,4 D 00 H 00 M (trough prior inhalation),6360 pmol/L
same,cGMP changes from baseline,5 D 00 H 00 M (trough prior inhalation),5920 pmol/L
same,cGMP changes from baseline,6 D 00 H 00 M,5090 pmol/L
same,cGMP changes from baseline,6 D 03 H 00 M,13400 pmol/L
same,cGMP changes from baseline,6 D 08 H 00 M,20100 pmol/L
same,cGMP changes from baseline,6 D 12 H 00 M,13900 pmol/L
same,cGMP changes from baseline,7 D 00 H 00 M (trough prior inhalation),6180 pmol/L
same,cGMP changes from baseline,8 D 00 H 00 M (trough prior inhalation),6200 pmol/L
same,cGMP changes from baseline,9 D 00 H 00 M (trough prior inhalation),6580 pmol/L
same,cGMP changes from baseline,10 D 00 H 00 M,6450 pmol/L
same,cGMP changes from baseline,10 D 03 H 00 M,12700 pmol/L
same,cGMP changes from baseline,10 D 08 H 00 M,17500 pmol/L
same,cGMP changes from baseline,10 D 12 H 00 M,13000 pmol/L
same,cGMP changes from baseline,11 D 00 H 00 M (trough prior inhalation),6940 pmol/L
same,cGMP changes from baseline,12 D 00 H 00 M (trough prior inhalation),8060 pmol/L
same,cGMP changes from baseline,12 D 22 H 00 M,6950 pmol/L
same,cGMP changes from baseline,13 D 02 H 00 M (after last inhalation),9120 pmol/L
same,cGMP changes from baseline,13 D 04 H 00 M (after last inhalation),12900 pmol/L
same,cGMP changes from baseline,13 D 06 H 00 M (after last inhalation),17000 pmol/L
same,cGMP changes from baseline,13 D 08 H 00 M (after last inhalation),17700 pmol/L
same,cGMP changes from baseline,13 D 12 H 00 M (after last inhalation),12900 pmol/L
same,cGMP changes from baseline,13 D 15 H 00 M (after last inhalation),12100 pmol/L
same,cGMP changes from baseline,14 D 00 H 00 M (after last inhalation),5410 pmol/L
same,cGMP changes from baseline,15 D 00 H 00 M (after last inhalation),2520 pmol/L
same,cGMP changes from baseline,15 D 12 H 00 M (after last inhalation),3040 pmol/L
same,cGMP changes from baseline,16 D 00 H 00 M (after last inhalation),2000 pmol/L
same,cGMP changes from baseline,16 D 12 H 00 M (after last inhalation),2410 pmol/L
same,cGMP changes from baseline,17 D 00 H 00 M (after last inhalation),400 pmol/L
same,cGMP changes from baseline,20 D 00 H 00 M (after last inhalation),1220 pmol/L
same,cGMP changes from baseline,FOLLOW-UP,1520 pmol/L
same,cGMP changes from baseline,−0 D 09 H 00 M (pretreatment day),224 pmol/L
same,cGMP changes from baseline,−0 D 12 H 00 M (pretreatment day),306 pmol/L
same,cGMP changes from baseline,−0 D 16 H 00 M (pretreatment day),676 pmol/L
same,cGMP changes from baseline,−0 D 18 H 00 M (pretreatment day),−252.9 +/− 1345.9
same,cGMP changes from baseline,−0 D 20 H 00 M (pretreatment day),−952.9 +/− 1984.7
same,cGMP changes from baseline,−0 D 22 H 00 M (pretreatment day),−100.0 +/− 1403.1
same,cGMP concntration over time (mean +/− standard deviation),0 D 02 H 00 M,9170 pmol/L
same,cGMP concntration over time (mean +/− standard deviation),0 D 04 H 00 M,11600 pmol/L
same,cGMP concntration over time (mean +/− standard deviation),0 D 06 H 00 M,14300 pmol/L
same,cGMP concntration over time (mean +/− standard deviation),0 D 08 H 00 M,14900 pmol/L
same,cGMP concntration over time (mean +/− standard deviation),0 D 12 H 00 M,11800 pmol/L
same,cGMP concntration over time (mean +/− standard deviation),0 D 15 H 00 M,11100 pmol/L
same,cGMP concntration over time (mean +/− standard deviation),1 D 00 H 00 M,7310 pmol/L
same,cGMP concntration over time (mean +/− standard deviation),2 D 00 H 00 M,8880 pmol/L
same,cGMP concntration over time (mean +/− standard deviation),2 D 03 H 00 M,17300 pmol/L
same,cGMP concntration over time (mean +/− standard deviation),2 D 08 H 00 M,20800 pmol/L
same,cGMP concntration over time (mean +/− standard deviation),2 D 12 H 00 M,16900 pmol/L
same,cGMP concntration over time (mean +/− standard deviation),3 D 00 H 00 M,9490 pmol/L
same,cGMP concntration over time (mean +/− standard deviation),4 D 00 H 00 M,10700 pmol/L
same,cGMP concntration over time (mean +/− standard deviation),5 D 00 H 00 M,10300 pmol/L
same,cGMP concntration over time (mean +/− standard deviation),6 D 00 H 00 M,9420 pmol/L
same,cGMP concntration over time (mean +/− standard deviation),6 D 03 H 00 M,17700 pmol/L
same,cGMP concntration over time (mean +/− standard deviation),6 D 08 H 00 M,24500 pmol/L
same,cGMP concntration over time (mean +/− standard deviation),6 D 12 H 00 M,18200 pmol/L
same,cGMP concntration over time (mean +/− standard deviation),7 D 00 H 00 M,10500 pmol/L
same,cGMP concntration over time (mean +/− standard deviation),8 D 00 H 00 M,10500 pmol/L
same,cGMP concntration over time (mean +/− standard deviation),9 D 00 H 00 M,10900 pmol/L
same,cGMP concntration over time (mean +/− standard deviation),10 D 00 H 00 M,10800 pmol/L
same,cGMP concntration over time (mean +/− standard deviation),10 D 03 H 00 M,17100 pmol/L
same,cGMP concntration over time (mean +/− standard deviation),10 D 08 H 00 M,21900 pmol/L
same,cGMP concntration over time (mean +/− standard deviation),10 D 12 H 00 M,17300 pmol/L
same,cGMP concntration over time (mean +/− standard deviation),11 D 00 H 00 M,11300 pmol/L
same,cGMP concntration over time (mean +/− standard deviation),12 D 00 H 00 M,12400 pmol/L
same,cGMP concntration over time (mean +/− standard deviation),12 D 22 H 00 M,11300 pmol/L
same,cGMP concntration over time (mean +/− standard deviation),13 D 02 H 00 M,13400 pmol/L
same,cGMP concntration over time (mean +/− standard deviation),13 D 04 H 00 M,17300 pmol/L
same,cGMP concntration over time (mean +/− standard deviation),13 D 06 H 00 M,21400 pmol/L
same,cGMP concntration over time (mean +/− standard deviation),13 D 08 H 00 M,22000 pmol/L
same,cGMP concntration over time (mean +/− standard deviation),13 D 12 H 00 M,17200 pmol/L
same,cGMP concntration over time (mean +/− standard deviation),13 D 15 H 00 M,16400 pmol/L
same,cGMP concntration over time (mean +/− standard deviation),14 D 00 H 00 M,9740 pmol/L
same,cGMP concntration over time (mean +/− standard deviation),15 D 00 H 00 M,6850 pmol/L
same,cGMP concntration over time (mean +/− standard deviation),15 D 12 H 00 M,7370 pmol/L
same,cGMP concntration over time (mean +/− standard deviation),16 D 00 H 00 M,6330 pmol/L
same,cGMP concntration over time (mean +/− standard deviation),16 D 12 H 00 M,6740 pmol/L
same,cGMP concntration over time (mean +/− standard deviation),17 D 00 H 00 M,4730 pmol/L
same,cGMP concntration over time (mean +/− standard deviation),20 D 00 H 00 M,5520 pmol/L
same,cGMP concntration over time (mean +/− standard deviation),FOLLOW-UP,5850 pmol/L
same,cGMP concntration over time (mean +/− standard deviation),−0 D 02 H 00 M,4330 pmol/L
same,cGMP concntration over time (mean +/− standard deviation),−0 D 09 H 00 M,5490 pmol/L
same,cGMP concntration over time (mean +/− standard deviation),−0 D 12 H 00 M,5570 pmol/L
same,cGMP concntration over time (mean +/− standard deviation),−0 D 16 H 00 M,5940 pmol/L
same,cGMP concntration over time (mean +/− standard deviation),−0 D 18 H 00 M,5010 pmol/L
same,cGMP concntration over time (mean +/− standard deviation),−0 D 20 H 00 M,4310 pmol/L
same,cGMP concntration over time (mean +/− standard deviation),−0 D 22 H 00 M,5160 pmol/L
same,cGMP concntration over time (mean +/− standard deviation),−1 D 02 H 00 M,5260 pmol/L
same,steady state of cGMP concentration reached after,1000 μg once daily inhalation,≤ 11 days
